Measurements as given in patent publication US10787452B2 (Vertex Pharmaceuticals Incorporated, priority 2012, dated 2020).
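Further: compound concentration needed to lower the Cisplatin-alone IC50 by a set fold.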

These compounds were tested on HCT116 colorectal cancer cells (assay: Cisplatin sensitization assay (96 h cell viability MTS)). Settings: 96 h MTS, compound plus Cisplatin.
Format: cell-based
Summary of the method: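 Cisplatin and compound are dosed at the same time, both serially diluted 2-fold from 10 μM final across a full matrix. Plates sit at 37° C in 5% CO2 for 96 h before MTS addition.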
`Nc1nn2cc(F)cnc2c1C(=O)Nc1cnccc1-c1cccnc1Cl` [I-C-37, 2-amino-N-(2-chloro-[3,4′-bipyridin]-3′-yl)-6-fluoropyrazolo[1,5-a]pyrimidine-3-carboxamide] was tested, and the “Cisplatin Sensitization Assay” value was “+++ (Compounds with a Cisplatin sensitization value of <0.02 μM are marked with “+++.”)”.
`CN1CCN(C(=O)C2CCCN(c3c(F)cncc3NC(=O)c3c(N)nn4cc(F)cnc34)C2)CC1` (stereo not drawn) [I-N-289, 2-amino-6-fluoro-N-(5-fluoro-4-(3-(4-methylpiperazine-1-carbonyl)piperidin-1-yl)pyridin-3-yl)pyrazolo[1,5-a]pyrimidine-3-carboxamide] was tested, and the “Cisplatin Sensitization Assay” value was “++ (Compounds with a Cisplatin sensitization value >0.02 μM but <0.2 μM are marked with “++.”)”.
In the case of `Nc1nn2cc(F)cnc2c1C(=O)Nc1cncc(F)c1N1CCN(C2CCOCC2)CC1` [I-N-121, 2-amino-6-fluoro-N-(5-fluoro-4-(4-(tetrahydro-2H-pyran-4-yl)piperazin-1-yl)pyridin-3-yl)pyrazolo[1,5-a]pyrimidine-3-carboxamide], the “Cisplatin Sensitization Assay” value is reported as “+++ (Compounds with a Cisplatin sensitization value of <0.02 μM are marked with “+++.”)”.
For `CC(C)(C)N1CCN(c2ccncc2NC(=O)c2c(N)nn3cc(Cl)cnc23)CC1` [I-N-34, 2-amino-N-(4-(4-(tert-butyl)piperazin-1-yl)pyridin-3-yl)-6-chloropyrazolo[1,5-a]pyrimidine-3-carboxamide], the “Cisplatin Sensitization Assay” value was “++ (Compounds with a Cisplatin sensitization value >0.02 μM but <0.2 μM are marked with “++.”)”.
With `COc1ccc(-c2ccncc2NC(=O)c2c(N)nn3cc(F)cnc23)cn1` [I-C-27, 2-amino-6-fluoro-N-(6-methoxy-[3,4′-bipyridin]-3′-yl)pyrazolo[1,5-a]pyrimidine-3-carboxamide] the “Cisplatin Sensitization Assay” value was “++ (Compounds with a Cisplatin sensitization value >0.02 μM but <0.2 μM are marked with “++.”)”.
`Cn1c(-c2ccncc2NC(=O)c2c(N)nn3cc(F)cnc23)cccc1=O` [I-C-58, 2-amino-6-fluoro-N-(1-methyl-6-oxo-1,6-dihydro-[2,4′-bipyridin]-3′-yl)pyrazolo[1,5-a]pyrimidine-3-carboxamide] was tested, and the “Cisplatin Sensitization Assay” value was “+++ (Compounds with a Cisplatin sensitization value of <0.02 μM are marked with “+++.”)”.
For `CC1(N2CCN(C(=O)C3CCN(c4c(F)cncc4NC(=O)c4c(N)nn5cc(F)cnc45)CC3)CC2)COC1` [I-G-92, 2-amino-6-fluoro-N-(5-fluoro-4-(4-(4-(3-methyloxetan-3-yl)piperazine-1-carbonyl)piperidin-1-yl)pyridin-3-yl)pyrazolo[1,5-a]pyrimidine-3-carboxamide], the “Cisplatin Sensitization Assay” value was “+++ (Compounds with a Cisplatin sensitization value of <0.02 μM are marked with “+++.”)”.
For `Nc1nn2cc(F)cnc2c1C(=O)Nc1cnccc1N1CCN(C2CCOCC2)CC1` [I-N-11, 2-amino-6-fluoro-N-(4-(4-(tetrahydro-2H-pyran-4-yl)piperazin-1-yl)pyridin-3-yl)pyrazolo[1,5-a]pyrimidine-3-carboxamide], the “Cisplatin Sensitization Assay” value was “++ (Compounds with a Cisplatin sensitization value >0.02 μM but <0.2 μM are marked with “++.”)”.
For `CN1CCN(c2c(Cl)cncc2NC(=O)c2c(N)nn3cc(Cl)cnc23)CC1` [I-N-41, 2-amino-6-chloro-N-(5-chloro-4-(4-methylpiperazin-1-yl)pyridin-3-yl)pyrazolo[1,5-a]pyrimidine-3-carboxamide], the “Cisplatin Sensitization Assay” value was “+++ (Compounds with a Cisplatin sensitization value of <0.02 μM are marked with “+++.”)”.
With `Nc1nn2cc(F)cnc2c1C(=O)Nc1cnccc1N1CCN2C(=O)CC[C@H]2C1` [I-N-217, (S)-2-amino-6-fluoro-N-(4-(6-oxohexahydropyrrolo[1,2-a]pyrazin-2(1H)-yl)pyridin-3-yl)pyrazolo[1,5-a]pyrimidine-3-carboxamide] the “Cisplatin Sensitization Assay” value was “++ (Compounds with a Cisplatin sensitization value >0.02 μM but <0.2 μM are marked with “++.”)”.
In the case of `Nc1nn2cc(F)cnc2c1C(=O)Nc1cnccc1OC1CN2CCC1CC2` (racemic) [I-O-6, (R,S)-2-amino-6-fluoro-N-(4-(quinuclidin-3-yloxy)pyridin-3-yl)pyrazolo[1,5-a]pyrimidine-3-carboxamide], the “Cisplatin Sensitization Assay” value is reported as “+++ (Compounds with a Cisplatin sensitization value of <0.02 μM are marked with “+++.”)”.
With `Nc1nn2cc(F)cnc2c1C(=O)Nc1cncc(F)c1N1CCN2CCOC[C@H]2C1` [I-N-135, (R)-2-amino-6-fluoro-N-(5-fluoro-4-(hexahydropyrazino[2,1-c][1,4]oxazin-8(1H)-yl)pyridin-3-yl)pyrazolo[1,5-a]pyrimidine-3-carboxamide] the “Cisplatin Sensitization Assay” value was “+++ (Compounds with a Cisplatin sensitization value of <0.02 μM are marked with “+++.”)”.
In the case of `CN1CCN2CCN(c3ccncc3NC(=O)c3c(N)nn4cc(Cl)cnc34)CC2C1` (stereo not drawn) [I-N-61, 2-amino-6-chloro-N-(4-(8-methylhexahydro-1H-pyrazino[1,2-a]pyrazin-2(6H)-yl)pyridin-3-yl)pyrazolo[1,5-a]pyrimidine-3-carboxamide], the “Cisplatin Sensitization Assay” value is reported as “+++ (Compounds with a Cisplatin sensitization value of <0.02 μM are marked with “+++.”)”.
With `CN1CCN(c2ccncc2NC(=O)c2c(N)nn3cc(CC#N)cnc23)CC1` [I-N-82, 2-amino-6-(cyanomethyl)-N-(4-(4-methylpiperazin-1-yl)pyridin-3-yl)pyrazolo[1,5-a]pyrimidine-3-carboxamide] the “Cisplatin Sensitization Assay” value was “++ (Compounds with a Cisplatin sensitization value >0.02 μM but <0.2 μM are marked with “++.”)”.
`Nc1nn2cc(F)cnc2c1C(=O)Nc1cncc(F)c1N1CCN2C(=O)CCC[C@H]2C1` [I-N-279, (S)-2-amino-6-fluoro-N-(5-fluoro-4-(6-oxohexahydro-1H-pyrido[1,2-a]pyrazin-2(6H)-yl)pyridin-3-yl)pyrazolo[1,5-a]pyrimidine-3-carboxamide] was tested, and the “Cisplatin Sensitization Assay” value was “+++ (Compounds with a Cisplatin sensitization value of <0.02 μM are marked with “+++.”)”.
For `Nc1nn2cc(F)cnc2c1C(=O)Nc1cncc(F)c1N1CCNCC1` [I-N-118, 2-amino-6-fluoro-N-(5-fluoro-4-(piperazin-1-yl)pyridin-3-yl)pyrazolo[1,5-a]pyrimidine-3-carboxamide], the “Cisplatin Sensitization Assay” value was “+++ (Compounds with a Cisplatin sensitization value of <0.02 μM are marked with “+++.”)”.
For `Cc1cncn1-c1ccncc1NC(=O)c1c(N)nn2cc(F)cnc12` [I-N-283, 2-amino-6-fluoro-N-(4-(5-methyl-1H-imidazol-1-yl)pyridin-3-yl)pyrazolo[1,5-a]pyrimidine-3-carboxamide], the “Cisplatin Sensitization Assay” value was “++ (Compounds with a Cisplatin sensitization value >0.02 μM but <0.2 μM are marked with “++.”)”.
In the case of `COc1ccncc1NC(=O)c1c(N)nn2cc(Cl)cnc12` [I-O-57, 2-amino-6-chloro-N-(4-methoxypyridin-3-yl)pyrazolo[1,5-a]pyrimidine-3-carboxamide], the “Cisplatin Sensitization Assay” value is reported as “+++ (Compounds with a Cisplatin sensitization value of <0.02 μM are marked with “+++.”)”.
With `CN(C)CCOc1ccncc1NC(=O)c1c(N)nn2cc(CC#N)cnc12` [I-O-24, 2-amino-6-(cyanomethyl)-N-(4-(2-(dimethylamino)ethoxy)pyridin-3-yl)pyrazolo[1,5-a]pyrimidine-3-carboxamide] the “Cisplatin Sensitization Assay” value was “++ (Compounds with a Cisplatin sensitization value >0.02 μM but <0.2 μM are marked with “++.”)”.
`Nc1nn2cc(F)cnc2c1C(=O)Nc1cncc(F)c1N1CCN2C(=O)OC[C@@H]2C1` [I-N-248, (S)-2-amino-6-fluoro-N-(5-fluoro-4-(3-oxotetrahydro-1H-oxazolo[3,4-a]pyrazin-7(3H)-yl)pyridin-3-yl)pyrazolo[1,5-a]pyrimidine-3-carboxamide] was tested, and the “Cisplatin Sensitization Assay” value was “++ (Compounds with a Cisplatin sensitization value >0.02 μM but <0.2 μM are marked with “++.”)”.
For `Nc1nn2cc(F)cnc2c1C(=O)Nc1cnccc1N1CCC(C(=O)N2CCC3(COC3)C2)CC1` [I-G-84, N-(4-(4-(2-oxa-6-azaspiro[3.4]octane-6-carbonyl)piperidin-1-yl)pyridin-3-yl)-2-amino-6-fluoropyrazolo[1,5-a]pyrimidine-3-carboxamide], the “Cisplatin Sensitization Assay” value was “+++ (Compounds with a Cisplatin sensitization value of <0.02 μM are marked with “+++.”)”.
`Nc1nn2cc(F)cnc2c1C(=O)Nc1cncc(F)c1N1CCC(C(=O)N2CCC2)CC1` [I-G-8, 2-amino-N-(4-(4-(azetidine-1-carbonyl)piperidin-1-yl)-5-fluoropyridin-3-yl)-6-fluoropyrazolo[1,5-a]pyrimidine-3-carboxamide] was tested, and the “Cisplatin Sensitization Assay” value was “+++ (Compounds with a Cisplatin sensitization value of <0.02 μM are marked with “+++.”)”.
`Nc1nn2cc(Cl)cnc2c1C(=O)Nc1cnccc1N1CCN2CCC[C@H]2C1` [I-N-71, (S)-2-amino-6-chloro-N-(4-(hexahydropyrrolo[1,2-a]pyrazin-2(1H)-yl)pyridin-3-yl)pyrazolo[1,5-a]pyrimidine-3-carboxamide] was tested, and the “Cisplatin Sensitization Assay” value was “+++ (Compounds with a Cisplatin sensitization value of <0.02 μM are marked with “+++.”)”.
For `N#CCc1cnc2c(C(=O)Nc3cnccc3Oc3ccccc3)c(N)nn2c1` [I-O-25, 2-amino-6-(cyanomethyl)-N-(4-phenoxypyridin-3-yl)pyrazolo[1,5-a]pyrimidine-3-carboxamide], the “Cisplatin Sensitization Assay” value was “+++ (Compounds with a Cisplatin sensitization value of <0.02 μM are marked with “+++.”)”.
`Nc1nn2cc(F)cnc2c1C(=O)Nc1cncc(F)c1N1CCC(S(=O)(=O)N2CCN3CCC2CC3)CC1` [I-N-273, N-(4-(4-(1,4-diazabicyclo[3.2.2]nonan-4-ylsulfonyl)piperidin-1-yl)-5-fluoropyridin-3-yl)-2-amino-6-fluoropyrazolo[1,5-a]pyrimidine-3-carboxamide] was tested, and the “Cisplatin Sensitization Assay” value was “+++ (Compounds with a Cisplatin sensitization value of <0.02 μM are marked with “+++.”)”.
For `COCCn1cncc1-c1ccncc1NC(=O)c1c(N)nn2cc(F)cnc12` [I-C-83, 2-amino-6-fluoro-N-(4-(1-(2-methoxyethyl)-1H-imidazol-5-yl)pyridin-3-yl)pyrazolo[1,5-a]pyrimidine-3-carboxamide], the “Cisplatin Sensitization Assay” value was “++ (Compounds with a Cisplatin sensitization value >0.02 μM but <0.2 μM are marked with “++.”)”.
With `CN1CCN(c2ccncc2NC(=O)c2c(N)nn3cc(Cl)cnc23)CC1` [I-N-59, 2-amino-6-chloro-N-(4-(4-methylpiperazin-1-yl)pyridin-3-yl)pyrazolo[1,5-a]pyrimidine-3-carboxamide] the “Cisplatin Sensitization Assay” value was “++ (Compounds with a Cisplatin sensitization value >0.02 μM but <0.2 μM are marked with “++.”)”.
